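GI50 is the concentration that inhibits growth by half. TGI denotes the concentration required for complete inhibition of growth.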
How the values were obtained:
Assay in all cases: DTP human tumour cell line panel, 384-well format
SN12C renal = test system: SN12C renal
ACHN renal = test system: ACHN renal
OVCAR-5 ovarian = test system: OVCAR-5 ovarian
HOP-62 NSCLC = test system: HOP-62 NSCLC
SF-295 CNS = test system: SF-295 CNS
A498 renal = test system: A498 renal
EKVX NSCLC = test system: EKVX NSCLC
U251 glioblastoma = test system: U251 glioblastoma
NCI-H460 NSCLC = test system: NCI-H460 NSCLC
HCT-116 colon = test system: HCT-116 colon
HCC-2998 colon = test system: HCC-2998 colon
MCF7 breast = test system: MCF7 breast
HT29 colon = test system: HT29 colon
TK-10 renal = test system: TK-10 renal
M14 melanoma = test system: M14 melanoma
UACC-257 melanoma = test system: UACC-257 melanoma
HOP-92 NSCLC = test system: HOP-92 NSCLC
IGROV1 ovarian = test system: IGROV1 ovarian
A549 NSCLC = test system: A549 NSCLC
NCI/ADR-RES ovarian = test system: NCI/ADR-RES ovarian
COLO 205 colon = test system: COLO 205 colon
MOLT-4 leukemia = test system: MOLT-4 leukemia
OVCAR-8 ovarian = test system: OVCAR-8 ovarian
SNB-75 CNS = test system: SNB-75 CNS
T-47D breast = test system: T-47D breast
KM12 colon = test system: KM12 colon
HCT-15 colon = test system: HCT-15 colon
MALME-3M melanoma = test system: MALME-3M melanoma
SK-MEL-28 melanoma = test system: SK-MEL-28 melanoma
NCI-H23 lung = test system: NCI-H23 lung
LOX IMVI melanoma = test system: LOX IMVI melanoma
MDA-MB-231 breast = test system: MDA-MB-231 breast
RXF 393 renal = test system: RXF 393 renal
BT-549 breast = test system: BT-549 breast
DU-145 prostate = test system: DU-145 prostate
SF-268 CNS = test system: SF-268 CNS
HS 578T breast = test system: HS 578T breast
MDA-MB-435 melanoma = test system: MDA-MB-435 melanoma
OVCAR-4 ovarian = test system: OVCAR-4 ovarian
HL-60(TB) leukemia = test system: HL-60(TB) leukemia
PC-3 prostate = test system: PC-3 prostate
SNB-19 CNS = test system: SNB-19 CNS
NCI-H226 lung = test system: NCI-H226 lung
NCI-H522 lung = test system: NCI-H522 lung
OVCAR-3 ovarian = test system: OVCAR-3 ovarian
CAKI-1 renal = test system: CAKI-1 renal
SK-MEL-5 melanoma = test system: SK-MEL-5 melanoma
UACC-62 melanoma = test system: UACC-62 melanoma
RPMI-8226 leukemia = test system: RPMI-8226 leukemia
SR leukemia = test system: SR leukemia
MDA-MB-468 breast = test system: MDA-MB-468 breast
NCI-H322M lung = test system: NCI-H322M lung
SK-OV-3 ovarian = test system: SK-OV-3 ovarian
SF-539 CNS = test system: SF-539 CNS

## O=C(Oc1ccc([N+](=O)[O-])cc1)N1CCN(Cc2cccc(Oc3ccccc3)c2)CC1
SN12C renal
  GI50: 33.8 µM
  TGI: > 100 µM
ACHN renal
  GI50: > 100 µM
  TGI: > 100 µM
OVCAR-5 ovarian
  GI50: > 100 µM
  TGI: > 100 µM
HOP-62 NSCLC
  GI50: > 100 µM
  TGI: > 100 µM
SF-295 CNS
  GI50: > 100 µM
  TGI: > 100 µM
A498 renal
  GI50: 42.1 µM
  TGI: > 100 µM
EKVX NSCLC
  GI50: 44.1 µM
  TGI: > 100 µM
U251 glioblastoma
  GI50: > 100 µM
  TGI: > 100 µM
NCI-H460 NSCLC
  GI50: 21.6 µM
  TGI: 59.6 µM
HCT-116 colon
  GI50: 42.7 µM
  TGI: > 100 µM
HCC-2998 colon
  GI50: 47.3 µM
  TGI: > 100 µM
MCF7 breast
  GI50: 31 µM
  TGI: > 100 µM
HT29 colon
  GI50: 51.6 µM
  TGI: > 100 µM
TK-10 renal
  GI50: 46.7 µM
  TGI: > 100 µM
M14 melanoma
  GI50: > 100 µM
  TGI: > 100 µM
UACC-257 melanoma
  GI50: 23.2 µM
  TGI: > 100 µM
HOP-92 NSCLC
  GI50: > 100 µM
  TGI: > 100 µM
IGROV1 ovarian
  GI50: > 100 µM
  TGI: > 100 µM
A549 NSCLC
  GI50: > 100 µM
  TGI: > 100 µM
NCI/ADR-RES ovarian
  GI50: 27.5 µM
  TGI: > 100 µM
COLO 205 colon
  GI50: > 100 µM
  TGI: > 100 µM
MOLT-4 leukemia
  GI50: 41.4 µM
  TGI: > 100 µM
OVCAR-8 ovarian
  GI50: > 100 µM
  TGI: > 100 µM
SNB-75 CNS
  GI50: > 100 µM
  TGI: > 100 µM
T-47D breast
  GI50: 30.6 µM
  TGI: > 100 µM
KM12 colon
  GI50: 99.3 µM
  TGI: > 100 µM
HCT-15 colon
  GI50: 49.2 µM
  TGI: > 100 µM
MALME-3M melanoma
  GI50: > 100 µM
  TGI: > 100 µM
SK-MEL-28 melanoma
  GI50: > 100 µM
  TGI: > 100 µM
NCI-H23 lung
  GI50: 53.8 µM
  TGI: > 100 µM
LOX IMVI melanoma
  GI50: 53.9 µM
  TGI: > 100 µM
MDA-MB-231 breast
  GI50: > 100 µM
  TGI: > 100 µM
RXF 393 renal
  GI50: 48 µM
  TGI: > 100 µM
BT-549 breast
  GI50: 67.1 µM
  TGI: > 100 µM
DU-145 prostate
  GI50: > 100 µM
  TGI: > 100 µM
SF-268 CNS
  GI50: > 100 µM
  TGI: > 100 µM
HS 578T breast
  GI50: 92.3 µM
  TGI: > 100 µM
MDA-MB-435 melanoma
  GI50: > 100 µM
  TGI: > 100 µM
OVCAR-4 ovarian
  GI50: 30.9 µM
  TGI: > 100 µM
HL-60(TB) leukemia
  GI50: 13.2 µM
  TGI: 34.2 µM
PC-3 prostate
  GI50: > 100 µM
  TGI: > 100 µM
SNB-19 CNS
  GI50: > 100 µM
  TGI: > 100 µM
NCI-H226 lung
  GI50: > 100 µM
  TGI: > 100 µM
NCI-H522 lung
  GI50: 22.9 µM
  TGI: > 100 µM
OVCAR-3 ovarian
  GI50: > 100 µM
  TGI: > 100 µM
CAKI-1 renal
  GI50: > 100 µM
  TGI: > 100 µM
SK-MEL-5 melanoma
  GI50: 18 µM
  TGI: 55.2 µM
UACC-62 melanoma
  GI50: > 100 µM
  TGI: > 100 µM
RPMI-8226 leukemia
  GI50: 25.4 µM
  TGI: > 100 µM
SR leukemia
  GI50: 16.7 µM
  TGI: 32.9 µM
MDA-MB-468 breast
  GI50: 20.6 µM
  TGI: > 100 µM
NCI-H322M lung
  GI50: 46.2 µM
  TGI: > 100 µM
SK-OV-3 ovarian
  GI50: > 100 µM
  TGI: > 100 µM
SF-539 CNS
  GI50: > 100 µM
  TGI: > 100 µM
